Experimental data from PubChem BioAssay AID248 (DTP/NCI, 2004).
Several values for one entry are separate records, joined by “and”; a condition that tells them apart may be missing. Equal values may be shown once. Inconclusive results and toxic doses are left out. Rule as the data show it: active = T/C of 150% or more; inactive = T/C below 125%.

Tested on: L1210 leukemia ip in BDF1 mice, survival T/C
Assay: NCI In Vivo Anticancer Drug Screen. Data for tumor model L1210 Leukemia (intraperitoneal) in B6D2F1 (BDF1) mice
Details: endpoint: mean survival time, higher = longer survival
Outline: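 Transplantable tumor model; survival measured in treated vs vehicle control mice. Value = treated/control.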

[1] = dose: 100.0 mg/kg/injection, schedule: Q01DX009 (ip), vehicle: saline with Tween-80
[2] = dose: 100.0 mg/kg/injection, schedule: Q04DX003 (ip), vehicle: saline with Tween-80
[3] = dose: 200.0 mg/kg/injection, schedule: Q01DX009 (ip), vehicle: saline with Tween-80
[4] = dose: 200.0 mg/kg/injection, schedule: Q04DX003 (ip), vehicle: saline with Tween-80
[5] = dose: 400.0 mg/kg/injection, schedule: Q04DX003 (ip), vehicle: saline with Tween-80
[6] = dose: 100.0 mg/kg/injection, schedule: Q01DX009 (ip), vehicle: Klucel (hydroxypropylcellulose) (HPC)
[7] = dose: 200.0 mg/kg/injection, schedule: Q01DX009 (ip), vehicle: Klucel (hydroxypropylcellulose) (HPC)
[8] = dose: 400.0 mg/kg/injection, schedule: Q01DX009 (ip), vehicle: Klucel (hydroxypropylcellulose) (HPC)
[9] = dose: 50.0 mg/kg/injection, schedule: Q01DX009 (ip), vehicle: Klucel (hydroxypropylcellulose) (HPC)
[10] = dose: 100.0 mg/kg/injection, schedule: Q04DX003 (ip), vehicle: Klucel (hydroxypropylcellulose) (HPC)
[11] = dose: 100.0 mg/kg/injection, schedule: Q04DX003 (ip), vehicle: saline
[12] = dose: 200.0 mg/kg/injection, schedule: Q04DX003 (ip), vehicle: Klucel (hydroxypropylcellulose) (HPC)
[13] = dose: 200.0 mg/kg/injection, schedule: Q04DX003 (ip), vehicle: saline
[14] = dose: 400.0 mg/kg/injection, schedule: Q04DX003 (ip), vehicle: Klucel (hydroxypropylcellulose) (HPC)
[15] = dose: 400.0 mg/kg/injection, schedule: Q04DX003 (ip), vehicle: saline
[16] = dose: 25.0 mg/kg/injection, schedule: Q01DX009 (ip), vehicle: Klucel (hydroxypropylcellulose) (HPC)
[17] = dose: 100.0 mg/kg/injection, schedule: Q01DX001 (ip), vehicle: saline
[18] = dose: 200.0 mg/kg/injection, schedule: Q01DX001 (ip), vehicle: saline
[19] = dose: 400.0 mg/kg/injection, schedule: Q01DX001 (ip), vehicle: saline
[20] = dose: 100.0 mg/kg/injection, schedule: Q04DX002 (ip), vehicle: Klucel (hydroxypropylcellulose) (HPC)
[21] = dose: 200.0 mg/kg/injection, schedule: Q04DX002 (ip), vehicle: Klucel (hydroxypropylcellulose) (HPC)
[22] = dose: 100.0 mg/kg/injection, schedule: Q01DX001 (ip), vehicle: Klucel (hydroxypropylcellulose) (HPC)

Measured: T/C

Cc1sc2ccc(Cl)cc2[n+]1CCC(=O)O
inactive: [1] 101 % of control | [2] 111 % of control | [3] 96 % of control | [4] 108 % of control | dose: 400.0 mg/kg/injection, schedule: Q01DX009 (ip), vehicle: saline with Tween-80 97 % of control | [5] 95 % of control

O=C(O)c1ccc(-c2ccc(C(=O)O)cc2I)c(I)c1
inactive: [1] 92 % of control | [2] 91 % of control | [3] 87 % of control | [4] 96 % of control | [5] 94 % of control

O=C1c2ccccc2C(=O)N1OC1CCCCO1 (stereo not drawn)
inactive: [6] 104 % of control | [7] 110 % of control | [8] 97 % of control

CCCCCCCCCCCCNC(=O)c1ccc[n+](Cc2ccccc2)c1
inactive: dose: 5.0 mg/kg/injection, schedule: Q01DX009 (ip), vehicle: saline 102 % of control | dose: 5.0 mg/kg/injection, schedule: Q04DX003 (ip), vehicle: saline sonified 101 % of control | dose: 10.0 mg/kg/injection, schedule: Q01DX009 (ip), vehicle: saline 98 % of control | dose: 10.0 mg/kg/injection, schedule: Q04DX003 (ip), vehicle: saline sonified 106 % of control

O=[N+]([O-])c1ccc2c(N=Nc3ccc4ccccc4c3O)c(O)cc(S(=O)(=O)O)c2c1
inactive: dose: 50.0 mg/kg/injection, schedule: Q04DX003 (ip), vehicle: carboxymethylcellulose (CMC) 94 % of control | dose: 100.0 mg/kg/injection, schedule: Q04DX003 (ip), vehicle: carboxymethylcellulose (CMC) 93 % of control | dose: 200.0 mg/kg/injection, schedule: Q04DX003 (ip), vehicle: carboxymethylcellulose (CMC) 102 % of control

CC(=O)C(=Cc1ccccc1)C(C)=O
inactive: [9] 97 % of control | [6] 87 % of control and 90 % of control | [10] 92 % of control | [11] 106 % of control | [7] 95 % of control | [12] 97 % of control | [13] 116 % of control | [8] 91 % of control | [14] 97 % of control | [15] 106 % of control

Cc1c2c(c(C)c3c4c(oc13)CCCC4)C=NCC2
inactive: dose: 100.0 mg/kg/injection, schedule: Q01DX001 (ip), vehicle: carboxymethylcellulose (CMC) 95 % of control | dose: 200.0 mg/kg/injection, schedule: Q01DX001 (ip), vehicle: carboxymethylcellulose (CMC) 92 % of control | dose: 400.0 mg/kg/injection, schedule: Q01DX001 (ip), vehicle: carboxymethylcellulose (CMC) 92 % of control

NC(=O)OCC1OC(n2cnc3c(=O)[nH]c(N)nc32)C(O)C1O (stereo not drawn)
inactive: [16] 94 % of control | [9] 98 % of control | dose: 100.0 mg/kg/injection, schedule: Q01DX005 (ip), vehicle: saline 105 % of control | [6] 94 % of control | dose: 200.0 mg/kg/injection, schedule: Q01DX005 (ip), vehicle: saline 92 % of control

NCCCN=C=NCc1ccccc1
inactive: [17] 100 % of control

O=[N+]([O-])c1cccc(/C=C/C=C/c2c(Cl)cccc2Cl)c1
inactive: [17] 91 % of control | [18] 94 % of control | [19] 100 % of control

CN(CCC#N)c1ccc(/C=C(\C#N)C(N)=O)cc1
inactive: dose: 100.0 mg/kg/injection, schedule: Q01DX001 (ip), vehicle: saline with Tween-80 102 % of control | [2] 92 % of control and 93 % of control | dose: 200.0 mg/kg/injection, schedule: Q01DX001 (ip), vehicle: saline with Tween-80 102 % of control | [4] 100 % of control and 90 % of control | dose: 400.0 mg/kg/injection, schedule: Q01DX001 (ip), vehicle: saline with Tween-80 89 % of control | [5] 98 % of control and 90 % of control

CCOC(=O)C(C=Nc1ccc(S(N)(=O)=O)cc1)C(=O)OCC
inactive: [2] 105 % of control | [4] 92 % of control | [5] 92 % of control

O=c1cc2oc3c(O)c(O)ccc3c3c4ccccc4c(=O)c(c1)c23
inactive: dose: 12.5 mg/kg/injection, schedule: Q01DX009 (ip), vehicle: saline 92 % of control | dose: 25.0 mg/kg/injection, schedule: Q01DX009 (ip), vehicle: saline 96 % of control | dose: 50.0 mg/kg/injection, schedule: Q01DX009 (ip), vehicle: saline 103 % of control and 91 % of control | [11] 96 % of control | [13] 102 % of control

Cc1ccc(S(=O)(=O)F)cc1C(=O)Nc1ccc(OCCCc2c(N)nc(N)nc2N)cc1
inactive: dose: 37.5 mg/kg/injection, schedule: Q01DX001 (ip), vehicle: Klucel (hydroxypropylcellulose) (HPC) 96 % of control | dose: 75.0 mg/kg/injection, schedule: Q01DX001 (ip), vehicle: Klucel (hydroxypropylcellulose) (HPC) 94 % of control | dose: 150.0 mg/kg/injection, schedule: Q01DX001 (ip), vehicle: Klucel (hydroxypropylcellulose) (HPC) 98 % of control

O=S(=O)(O)CCS
inactive: [17] 94 % of control | [18] 105 % of control | [19] 100 % of control

COc1ccccc1NC(=O)Nc1ccccc1F
inactive: [6] 100 % of control | [10] 89 % of control | [7] 105 % of control | [12] 89 % of control | [8] 97 % of control | [14] 97 % of control

O=C(O)CSc1cc(Cl)ccc1Cl
inactive: dose: 12.5 mg/kg/injection, schedule: Q01DX009 (ip), vehicle: Klucel (hydroxypropylcellulose) (HPC) 102 % of control | [16] 100 % of control | [9] 106 % of control and 121 % of control | [6] 104 % of control and 92 % of control | [20] 104 % of control | [7] 105 % of control | [21] 110 % of control

COc1c(N)cc2c(c1C)OC(C)(C)C=C2
inactive: dose: 25.0 mg/kg/injection, schedule: Q01DX009 (ip), vehicle: saline with Tween-80 109 % of control | dose: 50.0 mg/kg/injection, schedule: Q01DX009 (ip), vehicle: saline with Tween-80 101 % of control | [2] 101 % of control and 94 % of control | [4] 100 % of control

CC(=O)Nc1cc2cc(Br)ccc2oc1=O
inactive: [6] 95 % of control | [7] 93 % of control

CC1CCCCC1C(=O)N1CCCCC1 (stereo not drawn)
inactive: dose: 100.0 mg/kg/injection, schedule: Q04DX002 (ip), vehicle: saline 117 % of control | dose: 200.0 mg/kg/injection, schedule: Q04DX002 (ip), vehicle: saline 96 % of control | dose: 400.0 mg/kg/injection, schedule: Q04DX002 (ip), vehicle: saline 101 % of control

CN(C)CC1(C)CCc2c(ccc3ccccc23)C1O (stereo not drawn)
inactive: [22] 94 % of control

CC(=O)c1ccc(OCC(=O)O)cc1
inactive: [22] 97 % of control | dose: 200.0 mg/kg/injection, schedule: Q01DX001 (ip), vehicle: Klucel (hydroxypropylcellulose) (HPC) 97 % of control | dose: 400.0 mg/kg/injection, schedule: Q01DX001 (ip), vehicle: Klucel (hydroxypropylcellulose) (HPC) 101 % of control

CCc1ccc(C)[n+](N)c1
inactive: dose: 50.0 mg/kg/injection, schedule: Q01DX001 (ip), vehicle: saline 103 % of control | [17] 109 % of control

CC(=NCc1ccccc1)C(C)(O)c1ccccc1 (stereo not drawn)
inactive: dose: 100.0 mg/kg/injection, schedule: Q01DX009 (ip), vehicle: other 105 % of control | dose: 100.0 mg/kg/injection, schedule: Q04DX003 (ip), vehicle: other 97 % of control | [11] 97 % of control | dose: 200.0 mg/kg/injection, schedule: Q01DX009 (ip), vehicle: other 107 % of control | dose: 200.0 mg/kg/injection, schedule: Q04DX003 (ip), vehicle: other 90 % of control | [13] 103 % of control | dose: 400.0 mg/kg/injection, schedule: Q01DX009 (ip), vehicle: other 100 % of control | dose: 400.0 mg/kg/injection, schedule: Q04DX003 (ip), vehicle: other 95 % of control | [15] 95 % of control

NC(=S)N/N=C/c1c(Cl)n(C(=O)c2ccccc2Cl)c2ccccc12
inactive: dose: 50.0 mg/kg/injection, schedule: Q04DX002 (ip), vehicle: Klucel (hydroxypropylcellulose) (HPC) 87 % of control | [20] 87 % of control | [21] 91 % of control
